{
  "source": "paper PMC13335744",
  "about": "“Functional Analysis of Ligand‐Gated Chloride Channels in a Cnidarian Sheds Light on the Evolution of Inhibitory Signaling” (Advanced Science, 2026)",
  "molecules": {"B1": {"name": "human GABAA receptor β3 subunit (hGABRB3), His-tagged (receptor, UniProt P28472 26-473, looked up)", "chain": "QSVNDPGNMSFVKETVDKLLKGYDIRLRPDFGGPPVCVGMNIDIASIDMVSEVNMDYTLTMYFQQYWRDKRLAYSGIPLNLTLDNRVADQLWVPDTYFLNDKKSFVHGVTVKNRMIRLHPDGTVLYGLRITTTAACMMDLRRYPLDEQNCTLEIESYGYTTDDIEFYWRGGDKAVTGVERIELPQFSIVEHRLVSRNVVFATGAYPRLSLSFRLKRNIGYFILQTYMPSILITILSWVSFWINYDASAARVALGITTVLTMTTINTHLRETLPKIPYVKAIDMYLMGCFVFVFLALLEYAFVNYIFFGRGPQRQKKLAEKTAKAKNDRSKSESNRVDAHGNILLTSLEVHNEMNEVSGGIGDTRNSAISFDNSGIQYRKQSMPREGHGRFLGDRSLPHKKTHLRRRSSQLKIKIPDLTDVNAIDRWSRIVFPFTFSLFNLVYWLYYVN", "modifications": "metabolically labelled with [35S]methionine; surface pool labelled with the lysine-reactive dye IR800-NHS ester", "notes": "human GABAA receptor subunit β3 (GABRB3), full-length cDNA from the Harvard Plasmid Repository, subcloned into a Gateway-compatible pNKS2 vector; Positive control for homopentamer formation; also called human GABAA β3; human β3 receptor; source: Xenopus laevis oocytes, cRNA-injected; digitonin-solubilised, purified (Ni-NTA); not shown: His tag, C-terminal, kept"}},
  "key": {"[1]": {"tested_on": "nvpLGIC‐1 – nvpLGIC‐7", "assay": "Ligand screen by two-electrode voltage clamp, nvpLGIC‐1 – nvpLGIC‐7 expressed individually in Xenopus oocytes", "format": "cell-based, Nematostella vectensis", "details": "for evoked currents: 1 µM–1 mM", "method": "Approximately 2–5 ng of cRNA of nvpLGICs were injected into Xenopus laevis oocytes of stages V and VI. Injected oocytes were incubated at 19 °C in oocyte Ringer's solution (OR‐2) containing (in mM): 82.5 NaCl, 2.5 KCl, 1.0 Na2HPO4,1.0 MgCl2, 1.0 CaCl2, 5.0 HEPES, 0.5 g l^−1 PVP, 1000 U l^−1 penicillin, and 10 mg l^−1 streptomycin. pH was adjusted to 7.3 using NaOH.\n(§1) For electrophysiology, whole‐oocyte currents were measured two days after injection using a two‐electrode voltage clamp (TEVC) set‐up with a TurboTec 03X amplifier (npi electronic GmbH, Tamm, Germany) and a pump‐driven solution exchange system combined with the oocyte testing carousel (OTC), controlled by the interface OTC‐20. For nvGluCl‐1, the His‐tagged version was functionally characterized. Standard bath solution contained (in mM): 140 NaCl, 10 HEPES, 1.8 CaCl2, and 1.0 MgCl2, pH was adjusted to 7.4 using NaOH. Solution exchange was controlled using the CellWorks 5.1.1 software (npi electronic). Data were sampled at 0.1–1 kHz and filtered at 20 Hz. Holding potential was −70 mV."}, "[2]": {"biological_target": "nvpLGIC-3 (Nematostella vectensis pentameric ligand-gated ion channel subunit 3), C-terminal His6 (Nematostella vectensis)", "assay": "native gel or EMSA; blue native PAGE of C-terminally His-tagged receptors expressed in Xenopus laevis oocytes, solubilised with digitonin and purified under non-denaturing conditions on Ni-NTA; run native and partially denatured (SDS 1 h at 37°C; methods say LiDS) to count lower-order intermediates; surface pool detected by IR800 fluorescence, total pool by 35S phosphorimaging"}, "[3]": {"biological_target": "nvpLGIC-5 (Nematostella vectensis pentameric ligand-gated ion channel subunit 5), C-terminal His6 (Nematostella vectensis)", "assay": "native gel or EMSA; blue native PAGE of C-terminally His-tagged receptors expressed in Xenopus laevis oocytes, solubilised with digitonin and purified under non-denaturing conditions on Ni-NTA; run native and partially denatured (SDS 1 h at 37°C; methods say LiDS) to count lower-order intermediates; surface pool detected by IR800 fluorescence, total pool by 35S phosphorimaging"}, "[4]": {"tested_on": "nvGluCl‐2 (nvpLGIC‐2)", "assay": "Two-electrode voltage clamp of Xenopus oocytes expressing nvGluCl‐2 (nvpLGIC‐2)", "format": "cell-based, Nematostella vectensis", "method": "(§2) Approximately 2–5 ng of cRNA of nvpLGICs were injected into Xenopus laevis oocytes of stages V and VI.\nas §1, with “For nvGluCl‐1, the His‐tagged version was functionally characterized.” left out\n(§3) Electrophysiological data were analyzed offline, and current amplitudes were assessed using CellWorks Reader 6.2.2 (npi electronic GmbH, Tamm, Germany). Concentration‐response relationships were normalized to the currents obtained with a saturating concentration (I/Imax ). The mean of normalized amplitudes was plotted as a function of ligand concentrations.\n(§4) Desensitization kinetics and recovery from desensitization were fitted to a mono‐exponential function: (2) y=yo+Ae^−x/τ where yo is the offset, A is the amplitude, and τ is the time constant."}, "[5]": {"tested_on": "nematocytes", "set-up": "method as in PMID 32452384", "details": "cited from earlier work"}, "[6]": {"tested_on": "nvGluCl‐3 (nvpLGIC‐6)", "assay": "Two-electrode voltage clamp of Xenopus oocytes expressing nvGluCl‐3 (nvpLGIC‐6)", "format": "cell-based, Nematostella vectensis", "method": "as §2\nas §1, with “For nvGluCl‐1, the His‐tagged version was functionally characterized.” left out\nas §3, §4"}, "[7]": {"tested_on": "nvGluCl‐1 (nvpLGIC‐1)", "assay": "Two-electrode voltage clamp of Xenopus oocytes expressing nvGluCl‐1 (nvpLGIC‐1)", "format": "cell-based, Nematostella vectensis", "method": "as §2\nas §1, with “For nvGluCl‐1, the His‐tagged version was functionally characterized.” left out\nas §3, §4"}, "[8]": {"tested_on": "nvGluCl‐2 K229 mutants", "assay": "Two-electrode voltage clamp of oocytes expressing nvGluCl‐2 with substitutions of K229 (K229T, K229R, K229M)", "format": "cell-based, Nematostella vectensis", "excerpt": "Full‐length DNA sequences of […] subunits were identified and cloned based on bulk and single cell transcriptomes of N. vectensis. nvpLGIC‐1 – nvpLGIC‐4 were cloned in oocyte expression vector pRSSP6009 [72]. nvpLGIC‐5 and […] DNA sequences were synthesized and cloned in the pCDNA3.1 (‐) vector (BioCat GmbH). They were then subcloned in the vector pRSSP6009 (nvpLGIC‐6) or pRSSP 6013 (nvpLGIC‐5). Site‐directed mutations were introduced in nvGluCl‐2 to create the mutants at position K229, using the Quick‐change mutagenesis method. nvpLGIC‐1 – nvpLGIC‐6 subunits were fused with His6‐tags at their C‐terminus using PCR. His6‐tags were incorporated just before the stop codon without changing any other amino acids. All final constructs were sequenced for confirmation. […]\nFor electrophysiology, whole‐oocyte currents were measured two days after injection using a two‐electrode voltage clamp (TEVC) set‐up with a TurboTec 03X amplifier (npi electronic GmbH, Tamm, Germany) and a pump‐driven solution exchange system combined with the oocyte testing carousel (OTC), controlled by the interface OTC‐20. […]"}, "[9]": {"biological_target": "nvpLGIC-1 (Nematostella vectensis pentameric ligand-gated ion channel subunit 1), C-terminal His6 (Nematostella vectensis)", "assay": "native gel or EMSA; blue native PAGE of C-terminally His-tagged receptors expressed in Xenopus laevis oocytes, solubilised with digitonin and purified under non-denaturing conditions on Ni-NTA; run native and partially denatured (SDS 1 h at 37°C; methods say LiDS) to count lower-order intermediates; surface pool detected by IR800 fluorescence, total pool by 35S phosphorimaging"}, "[10]": {"biological_target": "the molecule itself", "assay": "native gel or EMSA; blue native PAGE of C-terminally His-tagged receptors expressed in Xenopus laevis oocytes, solubilised with digitonin and purified under non-denaturing conditions on Ni-NTA; run native and partially denatured (SDS 1 h at 37°C; methods say LiDS) to count lower-order intermediates; surface pool detected by IR800 fluorescence, total pool by 35S phosphorimaging"}, "[11]": {"details": "also with a mix of nvpLGIC‐1 – nvpLGIC‐7, nvpLGIC‐7 not tested individually"}, "[12]": {"details": "at 500 µM glutamate, single exponential fit"}, "[13]": {"details": "read-out: EC50, half‐maximal activation, TEVC, holding potential −70 mV"}},
  "data": [
    {"molecule": "N[C@@H](CC(=O)O)C(=O)O", "note": "[aspartate]", "values": [
      {"measurement": "elicited currents", "setting": "[1]; [11]", "result": "did not elicit currents"}
    ]},
    {"molecule": "nvpLGIC-3 (Nematostella vectensis pentameric ligand-gated ion channel subunit 3), C-terminal His6 (receptor)", "values": [
      {"measurement": "stoichiometry N", "setting": "[2]", "result": 5}
    ]},
    {"molecule": "NCCC(=O)O", "note": "[β‐alanine]", "values": [
      {"measurement": "elicited currents", "setting": "[1]; [11]", "result": "did not elicit currents"}
    ]},
    {"molecule": "NCCc1c[nH]c2ccc(O)cc12", "note": "[serotonin]", "values": [
      {"measurement": "elicited currents", "setting": "[1]; 1 mM", "result": "did not elicit currents"}
    ]},
    {"molecule": "NCCc1c[nH]cn1", "note": "[histamine]", "values": [
      {"measurement": "elicited currents", "setting": "[1]; [11]", "result": "did not elicit currents"}
    ]},
    {"molecule": "nvpLGIC-5 (Nematostella vectensis pentameric ligand-gated ion channel subunit 5), C-terminal His6 (receptor)", "values": [
      {"measurement": "stoichiometry N", "setting": "[3]", "result": 5}
    ]},
    {"molecule": "N[C@@H](CCC(=O)O)C(=O)O", "note": "[glutamate]", "values": [
      {"measurement": "evoked currents", "setting": "[4]; 100 µM", "result": "evoked large currents"},
      {"measurement": "recovery from desensitization, τrecovery", "setting": "[4]; 30 s desensitizing pulse of 100 µM glutamate", "result": 31, "unit": "s"},
      {"measurement": "time constant of desensitization, τdes", "setting": "[4]; [12]", "result": "111 ± 47", "unit": "ms"},
      {"measurement": "EC50", "setting": "[4]; [13]", "result": 102, "unit": "µM"},
      {"measurement": "elicited currents", "setting": "[5]", "result": "neither Glu nor GABA elicit currents"},
      {"measurement": "evoked currents", "setting": "[6]; 100 µM", "result": "evoked large currents"},
      {"measurement": "time constant of desensitization, τdes", "setting": "[6]; [12]", "result": "161 ± 93", "unit": "ms"},
      {"measurement": "recovery from desensitization, τrecovery", "setting": "[6]; desensitization by 30 µM glutamate for 30 s", "result": 38, "unit": "s"},
      {"measurement": "EC50", "setting": "[6]; [13]", "result": 7, "unit": "µM"},
      {"measurement": "evoked currents", "setting": "[7]; 100 µM", "result": "evoked large currents"},
      {"measurement": "time constant of desensitization, τdes", "setting": "[7]; [12]", "result": "26 ± 3", "unit": "ms"},
      {"measurement": "EC50", "setting": "[7]; read-out: EC50, half‐maximal activation, TEVC, holding potential −70 mV, His‐tagged version", "result": 16, "unit": "µM"},
      {"measurement": "response to glutamate of K229T, K229R, K229M mutants", "setting": "[8]; 10 mM glutamate", "result": "almost completely abolished the response"}
    ]},
    {"molecule": "picrotoxin [PTx]", "values": [
      {"measurement": "IC50", "setting": "[4]; 100 µM glutamate, read-out: apparent IC50, inhibition of glutamate-evoked current", "result": "~10", "unit": "µM"}
    ]},
    {"molecule": "CC(=O)OCC[N+](C)(C)C", "note": "[acetylcholine]", "values": [
      {"measurement": "elicited currents", "setting": "[5]", "result": "elicits an inward Ca^2+ current"},
      {"measurement": "elicited currents", "setting": "[1]; 1 mM", "result": "did not elicit currents"}
    ]},
    {"molecule": "nvpLGIC-1 (Nematostella vectensis pentameric ligand-gated ion channel subunit 1), C-terminal His6 (receptor)", "values": [
      {"measurement": "stoichiometry N", "setting": "[9]", "result": 5}
    ]},
    {"molecule": "NCC(=O)O", "note": "[glycine]", "values": [
      {"measurement": "evoked currents", "setting": "[1]", "result": "neither GABA nor glycine (1 µM–1 mM) evoked currents"}
    ]},
    {"molecule": "NCCCC(=O)O", "note": "[GABA, γ‐aminobutyric acid]", "values": [
      {"measurement": "elicited currents", "setting": "[5]", "result": "neither Glu nor GABA elicit currents"},
      {"measurement": "evoked currents", "setting": "[1]", "result": "neither GABA nor glycine (1 µM–1 mM) evoked currents"},
      {"measurement": "activation of K229 mutant channels", "setting": "[8]", "result": "still not activated"}
    ]},
    {"molecule": "N[C@H](CO)C(=O)O", "note": "[D‐serine]", "values": [
      {"measurement": "elicited currents", "setting": "[1]; 1 mM", "result": "did not elicit currents"}
    ]},
    {"molecule": "NC(=O)CC[C@H](N)C(=O)O", "note": "[glutamine]", "values": [
      {"measurement": "elicited currents", "setting": "[1]; [11]", "result": "did not elicit currents"}
    ]},
    {"molecule": "B1", "values": [
      {"measurement": "stoichiometry N", "setting": "[10]", "result": 5}
    ]}
  ]
}
